Results reported in US20190307811A1, “METHOD FOR TREATING AIRWAYS DISEASE” (HUDSON INSTITUTE OF MEDICAL RESEARCH, priority 2016, published 2019).

Assays:
[1] = test system: bleomycin (BLM)-induced model of pulmonary fibrosis; assay: Interstitial fibrosis, bleomycin-induced pulmonary fibrosis model; format: in vivo; settings: BLM-injured mice, treatment days 22-28
Protocol: (§1) The following is relevant to Example 10. A bleomycin (BLM)-induced model of pulmonary fibrosis was established in mice (n=49). Mice were intranasally (IN) administered with 20 μg of bleomycin sulphate (Hospira, Melbourne, Victoria, Australia) in 50 μl of saline (equivalent to 400 μg/ml; 25 μl per nare) on days 0 and 7. For control mice (n=7), however, instead of BLM, they were given IN administration (50 μL per mouse) of 0.9% w/v saline on days 0 and 7. All mice were then left untreated for a further two weeks (until day 21).
(§2) On day 22 (1 day following completion of induction of the BLM-induced pulmonary fibrosis model), mice were lightly anaesthetized with isoflurane (Baxter Health Care, NSW, Australia) and held in a semi-supine position while IN administration of the appropriate treatment took place. The following treatments were administered daily or once-weekly to mice, from days 22-28.
(§3) BLM alone (injury control group): a-sub-group of mice (n=7) received 50 μL of phosphate buffered saline (PBS; the vehicle for Pirfenidone, AECs and AEC-derived exosomes; 25 μL per nare) daily, using an automatic pipette from days 22-28,
(§4) Pirfenidone: a separate sub-group of mice (n=7) received 1 mg of Pirfenidone (Tocris Bioscience, Noble Park, Victoria, Australia) per day (equivalent to 50 mg/kg/day) by twice daily oral gavage, from days 22-28. […]

[2] = test system: bleomycin (BLM)-induced model of pulmonary fibrosis; assay: Subepithelial ECM/collagen deposition, bleomycin-induced pulmonary fibrosis model; format: in vivo; settings: BLM-injured mice, treatment days 22-28
Protocol: as §1, §2, §3, §4

[3] = test system: bleomycin (BLM)-induced model of pulmonary fibrosis; assay: Lung inflammation score, bleomycin-induced pulmonary fibrosis model; format: in vivo; settings: BLM-injured mice, treatment days 22-28
Protocol: as §1, §2, §3, §4

[4] = test system: chronic model of ovalbumin (OVA)-induced AAD; assay: Peri-bronchial inflammation score, chronic OVA-induced AAD model; format: in vivo, Balb/c mice; settings: scale 0 to 4; OVA-treated mice, intranasal treatment days 64-77; OVA alone 1.70±0.60, saline 0.15±0.40
Protocol: Six-to-eight week-old female Balb/c mice were obtained from Monash Animal Services (Monash University, Clayton, Victoria, Australia) and housed under a controlled environment, on a 12 hour light/12 hour dark lighting cycle with free access to water and lab chow (Barastock Stockfeeds, Pakenham, Victoria, Australia). All mice were provided an acclimatization period of 4-5 days before any experimentation.
(§5) To assess the individual vs combined effects of MSCs, AECs and RLX (serelaxin) in chronic AAD, a chronic model of ovalbumin (OVA)-induced AAD was established in mice (n=36). Mice were sensitized with two i.p. injections of 10 μg of Grade V chicken egg OVA (Sigma-Aldrich, Mo., USA) and 400 μg of aluminium potassium sulphate adjuvant (alum; AJAX Chemicals, NSW, Australia) in 500 μl of 0.9% w/v normal saline solution (Baxter Health Care, NSW, Australia) on day 0 and day 14. They were then challenged by whole body inhalation exposure (nebulization) to aerosolized OVA (2.5% w/v in 0.9% w/v normal saline) for thirty minutes, three times a week, between days 21 and 63, using an ultrasonic nebulizer (Omron NE-U07; Omron, Kyoto, Japan). Control mice (n=6) were given i.p injections of 500 μl 0.9% w/v saline and nebulized with 0.9% w/v saline instead of OVA. […]

[5] = test system: chronic model of ovalbumin (OVA)-induced AAD; assay: Epithelial thickness (Masson's trichrome), chronic OVA-induced AAD model; format: in vivo, Balb/c mice; settings: relative to BM length; OVA-treated mice; OVA alone 21.20±0.60, saline 16.89±0.76
Protocol: (§6) To assess the individual vs combined effects of MSCs, AECs and RLX (serelaxin) in chronic AAD, a chronic model of ovalbumin (OVA)-induced AAD was established in mice (n=36). Mice were sensitized with two i.p. injections of 10 μg of Grade V chicken egg OVA (Sigma-Aldrich, Mo., USA) and 400 μg of aluminium potassium sulphate adjuvant (alum; AJAX Chemicals, NSW, Australia) in 500 μl of 0.9% w/v normal saline solution (Baxter Health Care, NSW, Australia) on day 0 and day 14. They were then challenged by whole body inhalation exposure (nebulization) to aerosolized OVA (2.5% w/v in 0.9% w/v normal saline) for thirty minutes, three times a week, between days 21 and 63, using an ultrasonic nebulizer (Omron NE-U07; Omron, Kyoto, Japan). Control mice (n=6) were given i.p injections of 500 μl 0.9% w/v saline and nebulized with 0.9% w/v saline instead of OVA.
(§7) On day 64 (1 day following completion of induction of the chronic AAD model), mice were lightly anaesthetized with isoflurane (Baxter Health Care, NSW, Australia) and held in a semisupine position while intranasal administration of the appropriate treatment took place. […]

[6] = test system: thymic stromal lymphopoietin (TSLP); assay: TSLP immunohistochemistry (epithelial damage), chronic OVA-induced AAD model; format: in vivo, Balb/c mice; settings: OVA-treated mice; OVA alone 4.61±0.53, saline 1.00±0.30
Protocol: (§8) To assess the individual vs combined effects of MSCs, AECs and RLX (serelaxin) in chronic AAD, a chronic model of ovalbumin (OVA)-induced AAD was established in mice (n=36). Mice were sensitized with two i.p. injections of 10 μg of Grade V chicken egg OVA (Sigma-Aldrich, Mo., USA) and 400 μg of aluminium potassium sulphate adjuvant (alum; AJAX Chemicals, NSW, Australia) in 500 μl of 0.9% w/v normal saline solution (Baxter Health Care, NSW, Australia) on day 0 and day 14. […]
(§9) IHC was used to detect TGF-β1 (using a polyclonal antibody; sc-146; Santa Cruz Biotechnology, Santa Cruz, Calif., USA; 1:1000 dilution), α-smooth muscle actin (α-SMA; a marker of myofibroblast differentiation; using a monoclonal antibody; M0851; DAKO Antibodies, Glostrup, Denmark; 1:200 dilution) and thymic stromal lymphopoietin (TSLP; a marker for epithelial damage; using a polyclonal antibody; ABT330; EMD Millipore Corp'. Temecula, Calif., USA; 1:1000 dilution). Primary antibody staining was detected using the DAKO EnVision anti-rabbit or anti-mouse kits and 3,3′-Diaminobenzidine (DAB) chromogen, while negative controls, which were exposed to the EnVision kits in the absence of any primary antibody, were also included. […]

[7] = test system: goblet cells; assay: Goblet cell metaplasia (ABPAS staining), chronic OVA-induced AAD model; format: in vivo, Balb/c mice; settings: OVA-treated mice; OVA alone 4.83±0.20, saline 1.62±0.32
Protocol: as §6, §7

[8] = test system: chronic model of ovalbumin (OVA)-induced AAD; assay: Subepithelial collagen deposition (Masson's trichrome), chronic OVA-induced AAD model; format: in vivo, Balb/c mice; settings: OVA-treated mice; OVA alone 26.26±1.37, saline 8.07±0.58
Protocol: as §6, §7

[9] = test system: chronic model of ovalbumin (OVA)-induced AAD; assay: Hydroxyproline assay of total lung collagen concentration, chronic OVA-induced AAD model; format: in vivo, Balb/c mice; settings: collagen content/dry weight, OVA alone 3.82±0.10, saline 2.84±0.11
Protocol: as §5
The second largest lung lobe from each mouse was processed as previously described (Royce et al. (2009) supra; Royce et al. (2014) supra; Royce et al. (2015) supra) for the measurement of hydroxyproline content, which was determined from a standard curve of purified trans-4-hydroxy-L-proline (Sigma-Aldrich). […]

[10] = test system: TGF-β1; assay: Airway epithelial TGF-β1 immunohistochemistry, chronic OVA-induced AAD model; format: in vivo, Balb/c mice; settings: relative to saline-treated controls expressed as 1; OVA alone 10.65±0.81
Protocol: as §8, §9

[11] = test system: α-SMA-stained myofibroblasts; assay: Subepithelial myofibroblast accumulation (α-SMA IHC), chronic OVA-induced AAD model; format: in vivo, Balb/c mice; settings: OVA-treated mice; OVA alone 1.72±0.07, saline 0.44±0.13
Protocol: as §8, §9

[12] = test system: chronic model of ovalbumin (OVA)-induced AAD; assay: AHR by invasive plethysmography (methacholine), chronic OVA-induced AAD model; format: in vivo, Balb/c mice; settings: airway resistance to nebulized methacholine; vs OVA group
Protocol: as §5
On day 78 (24 hours after the final intranasal administration of PBS or various treatments detailed), mice were anesthetized with an i.p injection of ketamine 10 mg/kg and xylazine 2 mg/kg BW (in 0.9% w/v saline). […] The airway resistance of each mouse was then measured (reflecting changes in AHR) in response to increasing doses of nebulized acetyl-β-methylcholine chloride (methacholine; Sigma Aldrich, Mo., USA), delivered intratracheally, from 3.125-50 mg/ml over 5 doses, to elicit bronchoconstriction. […]

Compound	bleomycin-induced increase in interstitial fibrosis [1]	bleomycin-induced increase in subepithelial ECM/collagen deposition [2]	bleomycin-induced lung inflammation (inflammation score) [3]	peri-bronchial inflammation score [4]	epithelial thickness [5] [μm^2]	number of TSLP-positive cells within the airway epithelium [6]	goblet cell count [7]	subepithelial collagen (relative to basement membrane length) [8] [μm]	total lung collagen concentration [9] [%]	epithelial TGF-β1 expression [10]	number of α-SMA-stained myofibroblasts in the subepithelial layer [11] [per 100 μm BM length]	decrease of AHR [12] [%]
Cc1ccc(=O)n(-c2ccccc2)c1 [pirfenidone, Pirfenidone]	normalized	no effect	only partially reduce	–	–	–	–	–	–	–	–	–
Serelaxin [RLX]	–	–	–	1.55±0.83	18.19±0.74	3.14±0.34 per 100 μm of BM length	5.08±0.25 goblet cells/100 μm BM length	18.27±2.26	3.08±0.23	5.85±1.42	1.08±0.10	~50
